# Laboratory results published in patent US6245917A, “Crystalline sodium phenytoin monohydrate” (Warner-Lambert Company, priority 1999, dated 2001).
# Test: Repeated water uptake study with solvent-free SPM (dichloromethane preparation)
# Type: physicochemical
# From the text: Study of weight change under controlled humidity conditions, samples were placed in open vials, which were placed in closed controlled-humidity jars. Relative humidities were controlled using saturated aqueous salt solutions: 58% RH, NaBr; 75% RH, (NH4)2 SO4; 76%, sodium acetate; 84% RH, KBr.
# A possible cause of the observed weight loss is that some reaction solvent (toluene in this case) from the preparation of SPM remained on the solid and evaporated in the humidity jars. To test this theory, it was decided to prepare SPM, show it to be solvent-free, and repeat the water uptake studies. Dichloromethane was chosen as the organic solvent for the preparation rather than toluene because its lower boiling point should allow it to be removed from the solid more easily and completely. SPM was made by stirring a slurry of SPA and one equivalent of water in dichloromethane for 2 days, then isolation by filtration and air-drying of the solid SPM.
# The remainder of the SPM sample was allowed to dry in an open jar under ambient conditions for about 1 week. It was then characterized by XRPD elemental analysis, and Karl Fischer (KF) analysis. The sample appears to be pure SPM containing very little, if any, residual solvent.
# Both SPM and SPA increased in weight about 20% when equilibrium was reached (constant weight) at each humidity utilized. The samples were analyzed by XRPD after completion of the water uptake experiments. […] The nature of this form has not been determined.
compound,measurement,setting,value
"O=C1NC(=O)C(c2ccccc2)(c2ccccc2)N1 [SPM, sodium phenytoin monohydrate]",sample weight,"58% RH, day 0 (starting weight), monohydrate",1.5057 g
same,change in starting weight,"58% RH, day 1, monohydrate",+0.0186 g
same,sample weight,"58% RH, day 1, monohydrate",1.5243 g
same,change in starting weight,"58% RH, day 2, monohydrate",+0.0269 g
same,sample weight,"58% RH, day 2, monohydrate",1.5326 g
same,change in starting weight,"58% RH, day 3, monohydrate",+0.0384 g
same,sample weight,"58% RH, day 3, monohydrate",1.5441 g
same,change in starting weight,"58% RH, day 4, monohydrate",+0.0510 g
same,sample weight,"58% RH, day 4, monohydrate",1.5567 g
same,change in starting weight,"58% RH, day 5, monohydrate",+0.0620 g
same,sample weight,"58% RH, day 5, monohydrate",1.5677 g
same,change in starting weight,"58% RH, day 6, monohydrate",+0.0717 g
same,sample weight,"58% RH, day 6, monohydrate",1.5774 g
same,change in starting weight,"58% RH, day 7, monohydrate",+0.0816 g
same,sample weight,"58% RH, day 7, monohydrate",1.5873 g
same,change in starting weight,"58% RH, day 8, monohydrate",+0.0940 g
same,sample weight,"58% RH, day 8, monohydrate",1.5997 g
same,change in starting weight,"58% RH, day 10, monohydrate",+0.1185 g
same,sample weight,"58% RH, day 10, monohydrate",1.6242 g
same,change in starting weight,"58% RH, day 11, monohydrate",+0.1340 g
same,sample weight,"58% RH, day 11, monohydrate",1.6397 g
same,change in starting weight,"58% RH, day 12, monohydrate",+0.1486 g
same,sample weight,"58% RH, day 12, monohydrate",1.6543 g
same,change in starting weight,"58% RH, day 13, monohydrate",+0.1555 g
same,sample weight,"58% RH, day 13, monohydrate",1.6612 g
same,change in starting weight,"58% RH, day 14, monohydrate",+0.1633 g
same,sample weight,"58% RH, day 14, monohydrate",1.6690 g
same,change in starting weight,"58% RH, day 15, monohydrate",+0.1719 g
same,sample weight,"58% RH, day 15, monohydrate",1.6776 g
same,change in starting weight,"58% RH, day 16, monohydrate",+0.1794 g
same,sample weight,"58% RH, day 16, monohydrate",1.6851 g
same,change in starting weight,"58% RH, day 17, monohydrate",+0.1860 g
same,sample weight,"58% RH, day 17, monohydrate",1.6917 g
same,change in starting weight,"58% RH, day 21, monohydrate",+0.2176 g
same,sample weight,"58% RH, day 21, monohydrate",1.7233 g
same,change in starting weight,"58% RH, day 23, monohydrate",+0.2323 g
same,sample weight,"58% RH, day 23, monohydrate",1.7380 g
same,change in starting weight,"58% RH, day 26, monohydrate",+0.2525 g
same,sample weight,"58% RH, day 26, monohydrate",1.7582 g
same,change in starting weight,"58% RH, day 35",+0.2556 g
same,sample weight,"58% RH, day 35",1.7613 g
same,change in starting weight,"58% RH, day 42",+0.2511 g
same,sample weight,"58% RH, day 42",1.7568 g
same,Percent change based on average of final two weights,"58% RH, monohydrate",+17%
same,sample weight,"75% RH, day 0 (starting weight), monohydrate",1.5013 g
same,change in starting weight,"75% RH, day 1, monohydrate",+0.0470 g
same,sample weight,"75% RH, day 1, monohydrate",1.5483 g
same,change in starting weight,"75% RH, day 2, monohydrate",+0.0930 g
same,sample weight,"75% RH, day 2, monohydrate",1.5943 g
same,change in starting weight,"75% RH, day 3, monohydrate",+0.1386 g
same,sample weight,"75% RH, day 3, monohydrate",1.6399 g
same,change in starting weight,"75% RH, day 4, monohydrate",+0.1819 g
same,sample weight,"75% RH, day 4, monohydrate",1.6832 g
same,change in starting weight,"75% RH, day 5, monohydrate",+0.2205 g
same,sample weight,"75% RH, day 5, monohydrate",1.7218 g
same,change in starting weight,"75% RH, day 6, monohydrate",+0.2552 g
same,sample weight,"75% RH, day 6, monohydrate",1.7565 g
same,change in starting weight,"75% RH, day 7, monohydrate",+0.2874 g
same,sample weight,"75% RH, day 7, monohydrate",1.7887 g
same,change in starting weight,"75% RH, day 8, monohydrate",+0.2752 g
same,sample weight,"75% RH, day 8, monohydrate",1.7765 g
same,change in starting weight,"75% RH, day 10, monohydrate",+0.2725 g
same,sample weight,"75% RH, day 10, monohydrate",1.7738 g
same,change in starting weight,"75% RH, day 11, monohydrate",+0.2768 g
same,sample weight,"75% RH, day 11, monohydrate",1.7781 g
same,change in starting weight,"75% RH, day 12, monohydrate",+0.1796 g
same,sample weight,"75% RH, day 12, monohydrate",1.7809 g
same,change in starting weight,"75% RH, day 13, monohydrate",+0.2678 g
same,sample weight,"75% RH, day 13, monohydrate",1.7781 g
same,change in starting weight,"75% RH, day 14, monohydrate",+0.2755 g
same,sample weight,"75% RH, day 14, monohydrate",1.7768 g
same,change in starting weight,"75% RH, day 15, monohydrate",+0.2755 g
same,sample weight,"75% RH, day 15, monohydrate",1.7768 g
same,change in starting weight,"75% RH, day 16, monohydrate",+0.2761 g
same,sample weight,"75% RH, day 16, monohydrate",1.7774 g
same,change in starting weight,"75% RH, day 17, monohydrate",+0.2741 g
same,sample weight,"75% RH, day 17, monohydrate",1.7754 g
same,Percent change based on average of final two weights,"75% RH, monohydrate",+18%
same,sample weight,"84% RH, day 0 (starting weight), monohydrate",1.5068 g
same,change in starting weight,"84% RH, day 1, monohydrate",+0.0595 g
same,sample weight,"84% RH, day 1, monohydrate",1.5663 g
same,change in starting weight,"84% RH, day 2, monohydrate",+0.1159 g
same,sample weight,"84% RH, day 2, monohydrate",1.6227 g
same,change in starting weight,"84% RH, day 3, monohydrate",+0.1762 g
same,sample weight,"84% RH, day 3, monohydrate",1.6830 g
same,change in starting weight,"84% RH, day 4, monohydrate",+0.2309 g
same,sample weight,"84% RH, day 4, monohydrate",1.7377 g
same,change in starting weight,"84% RH, day 5, monohydrate",+0.2801 g
same,sample weight,"84% RH, day 5, monohydrate",1.7869 g
same,change in starting weight,"84% RH, day 6, monohydrate",+0.2965 g
same,sample weight,"84% RH, day 6, monohydrate",1.8033 g
same,change in starting weight,"84% RH, day 7, monohydrate",+0.2910 g
same,sample weight,"84% RH, day 7, monohydrate",1.7978 g
same,change in starting weight,"84% RH, day 8, monohydrate",+0.2932 g
same,sample weight,"84% RH, day 8, monohydrate",1.8000 g
same,change in starting weight,"84% RH, day 10, monohydrate",+0.2997 g
same,sample weight,"84% RH, day 10, monohydrate",1.8065 g
same,change in starting weight,"84% RH, day 11, monohydrate",+0.3062 g
same,sample weight,"84% RH, day 11, monohydrate",1.8130 g
same,change in starting weight,"84% RH, day 12, monohydrate",+0.3099 g
same,sample weight,"84% RH, day 12, monohydrate",1.8167 g
same,change in starting weight,"84% RH, day 13, monohydrate",+0.3090 g
same,sample weight,"84% RH, day 13, monohydrate",1.8158 g
same,change in starting weight,"84% RH, day 14, monohydrate",+0.3055 g
same,sample weight,"84% RH, day 14, monohydrate",1.8123 g
same,change in starting weight,"84% RH, day 15, monohydrate",+0.2996 g
same,sample weight,"84% RH, day 15, monohydrate",1.8064 g
same,change in starting weight,"84% RH, day 16, monohydrate",+0.2961 g
same,sample weight,"84% RH, day 16, monohydrate",1.8029 g
same,change in starting weight,"84% RH, day 17, monohydrate",+0.2916 g
same,sample weight,"84% RH, day 17, monohydrate",1.7984 g
same,Percent change based on average of final two weights,"84% RH, monohydrate",+20%
same,crystal form after completion of water uptake experiments (XRPD),each humidity utilized,another hydrated crystal form was produced
same,increase in weight at equilibrium (constant weight),each humidity utilized,about 20%
